Measurements published in PMC8987054, “Structural basis for PoxtA-mediated resistance to phenicol and oxazolidinone antibiotics” (Nature Communications, 2022).
In brackets after ≈: the same amount, converted by molar mass. Like-named read-outs stand apart in the source and are kept apart here.

Experiments:
E. faecium 9-F-6 [1] = test system: T1, E. faecium 9-F-6; assay: microbe, parasite or virus in culture; set-up: Broth microdilution MIC, EUENCF Sensititre plate, multidrug-resistant clinical isolate; conditions: Enterococcus faecium, 9F6, read-out: MIC BMD
T1 construct: 9-F-6 (ST872)
Excerpt: (§1) ST872 is a single locus variant of ST80 which is a pandemic hospital-adapted genetic lineage. […] The results (MICs) were interpreted according to EUCAST clinical breakpoints v.

E. faecium 9-F-6 [2] = test system: T1, E. faecium 9-F-6; assay: microbe, parasite or virus in culture; set-up: Gradient test MIC (MIC Test Strip, Liofilchem), multidrug-resistant clinical isolate; conditions: Enterococcus faecium, 9F6, read-out: MIC GRAD
Excerpt: as §1

SMILES | MIC (E. faecium 9-F-6 [1]) [µg/mL] | MIC (E. faecium 9-F-6 [2]) [µg/mL]
CC1(C)S[C@@H]2[C@H](NC(=O)[C@H](N)c3ccc(O)cc3)C(=O)N2[C@H]1C(=O)O [Amoxicillin] | > 32 | –
CC1(C)S[C@@H]2[C@H](NC(=O)[C@H](N)c3ccccc3)C(=O)N2[C@H]1C(=O)O [Ampicillin] | > 32 | > 256
O=C(N[C@H](CO)[C@H](O)c1ccc([N+](=O)[O-])cc1)C(Cl)Cl [Chloramphenicol] | – | 16 (≈ 49.5 µM)
CCC[C@@H]1C[C@@H](C(=O)N[C@@H]([C@H]2O[C@H](SC)[C@H](O)[C@@H](O)[C@H]2O)[C@H](C)Cl)N(C)C1 [Clindamycin] | – | > 256
CNC(C)[C@@H]1CC[C@@H](N)[C@@H](O[C@H]2[C@H](O)[C@@H](O[C@H]3OC[C@](C)(O)[C@H](NC)[C@H]3O)[C@H](N)C[C@@H]2N)O1 (some centres unmarked) [Gentamicin] | > 256 | > 1020
C[C@@H](O)[C@H]1C(=O)N2C(C(=O)O)=C(SCCNC=N)C[C@H]12 [Imipenem] | > 16 | –
C[C@H]1COc2c(N3CCN(C)CC3)c(F)cc3c(=O)c(C(=O)O)cn1c23 [Levofloxacin] | > 16 | –
CC(=O)NC[C@H]1CN(c2ccc(N3CCOCC3)c(F)c2)C(=O)O1 [Linezolid] | 8 (≈ 23.7 µM) | –
CN[C@@H]1[C@H](O[C@H]2[C@H](O[C@H]3[C@H](O)[C@@H](O)[C@H](N=C(N)N)[C@@H](O)[C@@H]3N=C(N)N)O[C@@H](C)[C@]2(O)C=O)O[C@@H](CO)[C@H](O)[C@H]1O [Streptomycin] | > 1020 | –
CN(C)c1cc(NC(=O)CNC(C)(C)C)c(O)c2c1C[C@H]1C[C@H]3[C@H](N(C)C)C(O)=C(C(N)=O)C(=O)[C@@]3(O)C(O)=C1C2=O [Tigecycline] | 0.12 (≈ 0.205 µM) | –
CN[C@H](CC(C)C)C(=O)N[C@H]1C(=O)N[C@@H](CC(N)=O)C(=O)N[C@H]2C(=O)N[C@H]3C(=O)N[C@H](C(=O)N[C@H](C(=O)O)c4cc(O)cc(O)c4-c4cc3ccc4O)[C@H](O)c3ccc(c(Cl)c3)Oc3cc2cc(c3O[C@@H]2O[C@H](CO)[C@@H](O)[C@H](O)[C@H]2O[C@H]2C[C@](C)(N)[C@H](O)[C@H](C)O2)Oc2ccc(cc2Cl)[C@H]1O [Vancomycin] | > 16 | > 256
